The results in this text go back to US20220089568A1 (Janssen Biotech, Inc., priority 2019, published 2022).

One test concerns MOLM-13 cells. In words: MOLM-13 Cellular Assay. The test is classed as cell-based. Conditions: Homo sapiens, 72 hours exposure, cell viability by CellTiter-Glo. As for the experimental part:
The day prior to assay set-up, cells were pelleted, resuspended in fresh media, counted, and cells were plated at 0.4×10^6 cell/mL in a T150 flask. […] Cells were exposed to different concentrations of test compounds at 37° C., 5% CO2 for 72 hours immediately after seeding.

The next test addresses T1, human DHODH (Homo sapiens, UniProt Q02127).
T1 construct: purchased Proteros PR-0044
In words: DHODH Enzymatic Assay. The class given is biochemical. Conditions: purified human DHODH; DCIP absorbance, end-point mode. A digest of the protocol:
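Purified human DHODH activity read as absorbance of DCIP, the terminal electron acceptor, in […] pH 7.5, 150 mM NaCl, 0.5 mM EDTA, 0.1% Triton X-100. Reaction started with a substrate mix of 20 mM DHO, 5 mM CoQ6 and 1 mM DCIP in assay buffer.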

T1 sequence (Q02127 whole entry): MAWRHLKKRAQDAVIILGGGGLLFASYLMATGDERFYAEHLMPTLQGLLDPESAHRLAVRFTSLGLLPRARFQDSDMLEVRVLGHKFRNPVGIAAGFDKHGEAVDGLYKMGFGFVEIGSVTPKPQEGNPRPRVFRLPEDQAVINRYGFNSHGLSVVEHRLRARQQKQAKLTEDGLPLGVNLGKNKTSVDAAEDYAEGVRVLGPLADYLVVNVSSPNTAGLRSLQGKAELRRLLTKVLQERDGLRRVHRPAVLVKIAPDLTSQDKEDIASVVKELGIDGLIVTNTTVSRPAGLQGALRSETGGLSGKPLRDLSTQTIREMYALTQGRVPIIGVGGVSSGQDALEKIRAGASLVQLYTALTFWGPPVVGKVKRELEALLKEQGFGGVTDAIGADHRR

Take `CCn1c(CO)nn(-c2nc(O[C@@H](C)C(F)(F)F)c(C(=O)Nc3c(Cl)n[nH]c3Cl)cc2F)c1=O` [Example 123, N-(3,5-Dichloro-1H-pyrazol-4-yl)-6-[4-ethyl-3-(hydroxymethyl)-5-oxo-1,2,4-triazol-1-yl]-5-fluoro-2-[(1S)-2,2,2-trifluoro-1-methyl-ethoxy]pyridine-3-carboxamide]: the figures for the EC50 in the test with MOLM-13 cells and at human DHODH were 0.208 nM and 2.46 nM, respectively.
In the case of `CCn1c(CO)nn(-c2nc(O[C@@H](C)C(F)(F)F)c(C(=O)Nc3c(C(F)F)n[nH]c3C)cc2F)c1=O` [Example 124, N-[3-(Difluoromethyl)-5-methyl-1H-pyrazol-4-yl]-6-[4-ethyl-3-(hydroxymethyl)-5-oxo-1,2,4-triazol-1-yl]-5-fluoro-2-[(1S)-2,2,2-trifluoro-1-methyl-ethoxy]pyridine-3-carboxamide], the results for the EC50 with MOLM-13 cells and at human DHODH were 0.371 nM and 3.31 nM, respectively.
In the case of `CCn1c(CO)nn(-c2nc(O[C@@H](C)C(F)(F)F)c(C(=O)Nc3c(F)ccnc3OC)cc2F)c1=O` [Example 125, 6-[4-Ethyl-3-(hydroxymethyl)-5-oxo-1,2,4-triazol-1-yl]-5-fluoro-N-(4-fluoro-2-methoxy-3-pyridyl)-2-[(1S)-2,2,2-trifluoro-1-methyl-ethoxy]pyridine-3-carboxamide], the EC50 (as a rule, the concentration needed to bring the measured effect to its halfway point) came out at 1.11 nM with MOLM-13 cells and 3.69 nM at human DHODH.
In the same order, the values of `CCn1c(CO)nn(-c2nc(O[C@@H](C)C(F)(F)F)c(C(=O)Nc3c(Cl)ccnc3OC)cc2F)c1=O` [Example 126, N-(4-Chloro-2-methoxy-3-pyridyl)-6-[4-ethyl-3-(hydroxymethyl)-5-oxo-1,2,4-triazol-1-yl]-5-fluoro-2-[(1S)-2,2,2-trifluoro-1-methyl-ethoxy]pyridine-3-carboxamide] are 0.328 nM and 0.312 nM.
In the same order, the values of `CCn1c(C(C)(C)O)nn(-c2nc(O[C@@H](C)C(F)(F)F)c(C(=O)Nc3c(C)n[nH]c3C(F)(F)F)cc2F)c1=O` [Example 128, 6-[4-Ethyl-3-(1-hydroxy-1-methyl-ethyl)-5-oxo-1,2,4-triazol-1-yl]-5-fluoro-N-[3-methyl-5-(trifluoromethyl)-1H-pyrazol-4-yl]-2-[(1S)-2,2,2-trifluoro-1-methyl-ethoxy]pyridine-3-carboxamide] are 4.46 nM and 9.55 nM.
